Values after ≈ are worked out from the molar mass of the structure shown. Like-named read-outs stand apart in the source and are kept apart here.
Tests used:
[1] = tested on: MDR1-transfected MDCK cell monolayers; test: in vitro; conditions: dog, MDCK-MDR1, 2 h, 5 μM, pH 7.4
Description: (§1) For this reason, the apparent permeability of selected compounds across MDR1-transfected MDCK cell monolayers was determined. This assay is an in vitro surrogate of the blood-brain barrier.
(§2) Permeability was determined by Absorption Systems (Exton, PA). MDR1-MDCK cell monolayers were grown to confluence on collagen-coated, microporous, polycarbonate membranes in 12-well Costar Transwell plates. […] The permeability assay buffer was Hanks Balanced Salt Solution containing 10 mM HEPES and 15 mM glucose at a pH of 7.4. A known p-glycoprotein inhibitor cyclosporin A (CSA) was also added to the assay buffer at 10 μM. Bovine serum albumin (1%) was added to the receiver well. The dosing solution concentrations of the test compounds were 5.0 μM in the assay buffer. All cell monolayers were first pre-incubated for 30 minutes with assay buffer. After 30 minutes, the buffer was removed, replaced with fresh buffer, and time was recorded as 0. […] Cell monolayers were dosed on the apical side (A-to-B) or basolateral side (B-to-A) and incubated at 37°C with 5% CO2 in a humidified incubator. After 2 hours, aliquots were taken from the receiver chambers. Samples were taken from the donor chamber at 0 and 2 hours. Each determination was performed in duplicate. The lucifer yellow flux was also measured for each monolayer to ensure no damage was inflicted to the cell monolayers during the flux period. All samples were assayed by LC/MS/MS using electrospray ionization.
(§3) Apparent permeability in the apical (A-B direction), PappA-B, and percent recovery are reported. Apparent permeability is a measure of the rate of transport across the cell monolayer. Percent recovery refers to the amount of compound recoverable at the end of the assay. Low recovery may indicate non-specific binding to assay plates, instability or accumulation in the cell pellet.
(§4) The apparent permeability, Papp, and percent recovery were calculated as follows:
(§5) Papp = (dCr/dt) × Vr/(A × C0) (1)
(§6) Percent Recovery = 100 × ((Vr × Cr^final) + (Vd × Cd^final))/(Vd × […]) (2)

[2] = in vitro; conditions: dog, MDCK-MDR1, pH 7.4
Description: as §1, §2, §3, §4, §5, §6

[3] = tested on: P. falciparum strain TM91C235; test: labeled hypoxanthine susceptibility assay, P. falciparum TM91C235; format: cell-based, Plasmodium falciparum; conditions: Plasmodium falciparum
Description: (§7) The in vitro activities of quinoline methanols against P. falciparum strains W2, D6, TM91C235, and TM90C2A were evaluated using the traditional labeled hypoxanthine assay of Desjardins et al as modified by Milhous et al. These four P. falciparum strains were selected since they have various levels of resistance to conventional anti-malarials.

[4] = tested on: P. falciparum strain D6; test: labeled hypoxanthine susceptibility assay, P. falciparum D6; format: cell-based, Plasmodium falciparum; conditions: Plasmodium falciparum
Description: as §7

[5] = in vitro; conditions: mouse
Description: (§8) General cytotoxicity was assessed by first determining LC50 's against a rodent macrophage (RAW) cell line using the 3-(4,5-dimethylthiazole-2-yl)-2,5-diphenyltetrazolium bromide (MTT) assay as described in one of our earlier studies. This screen was conducted to identify compounds that may require de-selection due to generalized toxicity. […] In vitro neurocytotoxicity was assessed by determining LC50s against primary mouse neurons using the MTT assay as described previously. Inhibition of the A2A and A1 receptors was determined at 200 nM in duplicate by Caliper Biosciences (Hanover, Maryland).

[6] = tested on: P. falciparum strain TM90C2A; test: labeled hypoxanthine susceptibility assay, P. falciparum TM90C2A; format: cell-based, Plasmodium falciparum
Description: as §7

[7] = tested on: P. falciparum strain W2; test: labeled hypoxanthine susceptibility assay, P. falciparum W2; format: cell-based, Plasmodium falciparum; conditions: Plasmodium falciparum
Description: as §7

[8] = metabolic stability in mouse liver microsomes; format: in vitro ADME; conditions: for half-life at 1 μM: pH 7.4, mouse liver microsomes, read-out: Half-life in mouse micro
Description: (§9) Interesting compounds were also submitted for drug-drug interaction and metabolic stability assays. Low IC50s against specific cytochrome P450 isoforms may indicate the potential for a harmful drug interaction to occur in vivo with substrates of that isoform. A lack of metabolic stability in vitro may indicate potential metabolic instability in vivo, and, therefore, a shorter half-life. Drug interaction potential was evaluated in vitro using BD Gentest (Franklin Lakes, NJ) CYP450 inhibition kits as recommended by the manufacturer. Metabolic stability assessments were conducted using in vitro liver microsomes. […] The reaction is started with the addition of 1 U/mL glucose-6-phosphate dehydrogenase G6PD. The mixture is incubated on a shaking platform at 37°C, and aliquots are taken and quenched with the addition of an equal volume of cold acetonitrile at 0, 10, 20, 30, and 60 min. Samples are centrifuged at 3700 rpm for […] at 20°C to remove debris. Sample quantification is carried out by LC/MS, and metabolic half-life is calculated by log plots of the total ion chromatograph area remaining.

[9] = in vitro; conditions: mouse; remark: listed apart in the source
Description: as §8

[10] = biological target: T1, CYP450 2C19 (Homo sapiens, UniProt P33261); test: CYP450 inhibition kit (drug-drug interaction), 2C19; format: biochemical
T1 construct: purchased BD Gentest (Franklin Lakes, NJ)
Description: as §9, with “Low” for “Interesting compounds were also submitted for drug-drug interaction and metabolic stability assays. Low”

[11] = biological target: T2, CYP450 3A4 (Homo sapiens, UniProt P08684); test: CYP450 inhibition kit (drug-drug interaction), 3A4; format: biochemical
T2 construct: purchased BD Gentest (Franklin Lakes, NJ)
Description: as §9, with “Low” for “Interesting compounds were also submitted for drug-drug interaction and metabolic stability assays. Low”

[12] = biological target: T3, CYP450 2D6 (Homo sapiens, UniProt P10635); test: CYP450 inhibition kit (drug-drug interaction), 2D6; format: biochemical
T3 construct: purchased BD Gentest (Franklin Lakes, NJ)
Description: as §9, with “Low” for “Interesting compounds were also submitted for drug-drug interaction and metabolic stability assays. Low”

[13] = tested on: rodent macrophage (RAW) cell line; test: cells; conditions: Mus musculus, Macrophage, read-out: Macrophage IC50
Description: as §8

[14] = biological target: T4, CYP450 1A2 (Homo sapiens, UniProt P05177); test: CYP450 inhibition kit (drug-drug interaction), 1A2; format: biochemical
T4 construct: purchased BD Gentest (Franklin Lakes, NJ)
T4 sequence (P05177 1-516): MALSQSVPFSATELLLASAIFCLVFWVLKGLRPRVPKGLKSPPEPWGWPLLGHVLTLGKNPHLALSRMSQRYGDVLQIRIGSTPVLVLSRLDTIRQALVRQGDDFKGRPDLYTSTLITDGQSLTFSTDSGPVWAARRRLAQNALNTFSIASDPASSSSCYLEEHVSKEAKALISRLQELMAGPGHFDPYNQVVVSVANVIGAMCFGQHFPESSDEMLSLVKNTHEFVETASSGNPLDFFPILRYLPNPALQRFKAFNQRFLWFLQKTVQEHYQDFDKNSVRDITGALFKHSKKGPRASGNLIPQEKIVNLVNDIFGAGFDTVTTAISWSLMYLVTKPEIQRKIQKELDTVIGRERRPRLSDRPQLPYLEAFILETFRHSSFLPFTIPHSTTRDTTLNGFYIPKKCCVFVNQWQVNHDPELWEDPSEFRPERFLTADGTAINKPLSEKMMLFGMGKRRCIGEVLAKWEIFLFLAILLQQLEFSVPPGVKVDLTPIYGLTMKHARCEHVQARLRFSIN
Description: as §9, with “Low” for “Interesting compounds were also submitted for drug-drug interaction and metabolic stability assays. Low”

[15] = biological target: T5, CYP450 2C9 (Homo sapiens, UniProt P11712); test: CYP450 inhibition kit (drug-drug interaction), 2C9; format: biochemical
T5 construct: purchased BD Gentest (Franklin Lakes, NJ)
Description: as §9, with “Low” for “Interesting compounds were also submitted for drug-drug interaction and metabolic stability assays. Low”

[16] = D6, read-out: IC90 Pf D6, P. falciparum D6, mefloquine: historical mean +/- SD (n)
[17] = Plasmodium falciparum, TM90C2A, read-out: IC90 Pf C2A
[18] = Plasmodium falciparum, TM90C2A; read-out: IC90 PfC2A
[19] = D6, read-out: PF D6 IC90, P. falciparum D6
[20] = Plasmodium falciparum, TM90C2A, read-out: IC90 PfC2A
[21] = Plasmodium falciparum, TM90C2A, read-out: PF C2A IC90
[22] = Plasmodium falciparum, TM90C2A, read-out: Pf C2A IC90 nM values calculated using MW in Column C

T3 sequence (P10635 whole entry): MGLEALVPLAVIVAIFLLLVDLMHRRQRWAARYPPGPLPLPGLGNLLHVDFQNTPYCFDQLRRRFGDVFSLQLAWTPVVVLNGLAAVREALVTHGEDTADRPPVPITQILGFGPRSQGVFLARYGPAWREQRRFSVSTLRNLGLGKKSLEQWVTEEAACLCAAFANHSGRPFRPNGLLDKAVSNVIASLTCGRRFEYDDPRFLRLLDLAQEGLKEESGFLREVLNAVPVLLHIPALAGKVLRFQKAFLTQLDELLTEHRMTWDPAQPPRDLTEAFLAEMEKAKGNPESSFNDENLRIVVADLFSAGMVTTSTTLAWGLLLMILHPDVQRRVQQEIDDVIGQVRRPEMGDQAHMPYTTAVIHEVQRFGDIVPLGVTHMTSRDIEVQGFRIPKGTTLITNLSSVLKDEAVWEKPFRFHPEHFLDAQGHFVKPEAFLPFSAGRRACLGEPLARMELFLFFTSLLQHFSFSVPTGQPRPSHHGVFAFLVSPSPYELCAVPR
T2 sequence (P08684 whole entry): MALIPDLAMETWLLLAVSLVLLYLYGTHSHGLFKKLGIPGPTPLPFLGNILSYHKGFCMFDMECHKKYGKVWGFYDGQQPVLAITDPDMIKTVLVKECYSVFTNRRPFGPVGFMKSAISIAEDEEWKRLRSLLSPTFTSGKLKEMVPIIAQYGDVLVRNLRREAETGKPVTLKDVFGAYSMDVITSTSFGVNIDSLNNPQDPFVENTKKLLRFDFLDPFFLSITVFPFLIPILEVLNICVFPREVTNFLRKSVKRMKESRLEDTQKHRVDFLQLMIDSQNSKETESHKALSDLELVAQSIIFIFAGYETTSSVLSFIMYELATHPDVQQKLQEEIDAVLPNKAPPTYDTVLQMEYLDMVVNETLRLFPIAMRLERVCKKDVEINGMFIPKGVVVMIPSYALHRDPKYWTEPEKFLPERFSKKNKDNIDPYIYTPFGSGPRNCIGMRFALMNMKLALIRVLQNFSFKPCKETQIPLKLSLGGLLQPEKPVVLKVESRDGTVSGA
T1 sequence (P33261 whole entry): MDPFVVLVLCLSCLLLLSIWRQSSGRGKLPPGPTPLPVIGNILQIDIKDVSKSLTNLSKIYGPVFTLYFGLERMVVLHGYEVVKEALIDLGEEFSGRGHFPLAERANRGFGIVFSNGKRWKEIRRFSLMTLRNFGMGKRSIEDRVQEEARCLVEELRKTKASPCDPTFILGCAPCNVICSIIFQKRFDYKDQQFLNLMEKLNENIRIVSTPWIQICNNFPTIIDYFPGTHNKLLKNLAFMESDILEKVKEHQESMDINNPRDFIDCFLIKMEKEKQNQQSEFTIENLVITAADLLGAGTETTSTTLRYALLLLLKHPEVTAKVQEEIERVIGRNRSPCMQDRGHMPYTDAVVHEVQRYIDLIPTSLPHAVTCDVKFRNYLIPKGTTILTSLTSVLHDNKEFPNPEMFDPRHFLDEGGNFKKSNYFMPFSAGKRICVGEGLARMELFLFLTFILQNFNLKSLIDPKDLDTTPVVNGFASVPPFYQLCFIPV
T5 sequence (P11712 whole entry): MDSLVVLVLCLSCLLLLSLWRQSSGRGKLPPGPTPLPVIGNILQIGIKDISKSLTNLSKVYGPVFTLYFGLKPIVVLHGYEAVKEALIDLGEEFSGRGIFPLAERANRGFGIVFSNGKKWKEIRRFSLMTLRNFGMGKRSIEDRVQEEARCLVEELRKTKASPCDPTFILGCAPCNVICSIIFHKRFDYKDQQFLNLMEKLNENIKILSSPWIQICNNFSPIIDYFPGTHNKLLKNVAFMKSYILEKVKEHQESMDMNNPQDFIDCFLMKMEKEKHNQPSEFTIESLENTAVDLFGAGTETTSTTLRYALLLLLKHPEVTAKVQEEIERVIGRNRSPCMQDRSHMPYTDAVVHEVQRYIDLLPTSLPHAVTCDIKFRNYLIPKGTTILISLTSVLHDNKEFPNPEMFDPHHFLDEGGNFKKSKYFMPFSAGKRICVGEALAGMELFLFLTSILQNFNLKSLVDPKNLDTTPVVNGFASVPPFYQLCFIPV

SMILES	% recovery (MDCK-MDR1 permeability assay) [1]	Papp A→B at 2 h, 5 μM [2]	IC90 ([3]; read-out: IC90 Pf C235)	IC90 [4, 16]	IC90 [6, 17]	IC90 [6, 18]	IC90 ([7]; W2, read-out: IC90 Pf W2)	CC50 [9]	IC90 ([3]; read-out: PF C235 IC90)	IC50 [10]	IC90 [4, 19]	IC50 [11]	IC50 [12]	IC50 [13]	IC90 [6, 21]	CSI (C2A/W2) ([6]; ratio of IC90 C2A to IC90 W2)	IC50 [14]	IC50 [15]	IC90 ([7]; W2, read-out: PF W2 IC90)	half-life at 1 μM [8]	further results
CCCCNCC(O)c1cc(C(F)(F)F)nc2c(C(F)(F)F)cccc12 (racemic) [WR177000]	58%	25.4 ×10⁻⁶ cm/s	0.0089 µg/mL (≈ 0.0234 µM)	0.0067 µg/mL (≈ 0.0176 µM)	0.0123 µg/mL	32 nM	1.7 ng/mL (≈ 0.00447 µM)	–	–	–	–	–	–	–	–	–	–	–	–	–	CC50 [5]: 2.78 µg/mL (≈ 7.31 µM); HL in Microsomes ([8]; Figure 3, species of microsomes not given): 37 min
C=CCNCC(O)c1cc(C(F)(F)F)nc2c(C(F)(F)F)cccc12 (stereo not shown) [WR308255]	–	–	0.019 µg/mL (≈ 0.0522 µM)	0.015 µg/mL (≈ 0.0412 µM)	0.037 µg/mL	–	3.8 ng/mL (≈ 0.0104 µM)	> 120 µM	0.0187 µg/mL (≈ 0.0513 µM)	25 µM	0.0145 µg/mL (≈ 0.0398 µM)	18 µM	2900 nM	58.4 µM	0.0368 µg/mL	9.8	1500 nM	25 µM	3.75 ng/mL (≈ 0.0103 µM)	25 min	IC90 [6, 20]: 101 nM; IC90 [6, 22]: 101 nM
OC(CNC1CCC1)c1cc(C(F)(F)F)nc2c(C(F)(F)F)cccc12 (stereo not shown) [WR308266]	–	–	0.024 µg/mL (≈ 0.0634 µM)	0.025 µg/mL (≈ 0.0661 µM)	0.052 µg/mL	–	6.1 ng/mL (≈ 0.0161 µM)	59 µM	0.0243 µg/mL (≈ 0.0643 µM)	7.6 µM	0.0245 µg/mL (≈ 0.0647 µM)	5.7 µM	1400 nM	13.1 µM	0.0517 µg/mL	8.5	2400 nM	12 µM	6.09 ng/mL (≈ 0.0161 µM)	22 min	IC90 [6, 20]: 137 nM; IC90 [6, 22]: 137 nM
CCC(C)CNCC(O)c1cc(C(F)(F)F)nc2c(C(F)(F)F)cccc12 (stereo not shown) [WR308387]	42%	18 ×10⁻⁶ cm/s	0.012 µg/mL (≈ 0.0304 µM)	0.007 µg/mL (≈ 0.0178 µM)	0.011 µg/mL	26 nM	1.2 ng/mL (≈ 0.00304 µM)	> 120 µM	0.0116 µg/mL (≈ 0.0293 µM)	7 µM	0.00695 µg/mL (≈ 0.0176 µM)	> 40 µM	2000 nM	20.8 µM	0.011 µg/mL	9.2	2100 nM	11 µM	1.19 ng/mL (≈ 0.00302 µM)	20 min	–

From publication PMC2833169, “Anti-malarial activity of a non-piperidine library of next-generation quinoline methanols” (Malaria Journal, 2010)
